Laboratory results taken from patent US20170119630A1, “BIPHASIC COMPOSITION FOR PERFUME AND PERSONAL CARE APPLICATIONS AND USES THEREOF” (Coty Inc., priority 2014, published 2017).

Tests used:
[1] = Single fragrance migration study in biphasic compositions, GC/MS analysis; type: physicochemical; conditions: for Result in % based on GC/MS analysis, Regular EDT aromatics %: Regular EDT with Fragrance oil Giddy 11598/00; for migration between phases when the amount of water is increased: water ~7.4 wt % to ~27.25 wt %, FIG. 1, GC/MS
Description: FIG. 1 has been obtained using GC/MS analytical tool. Depending primary on the log P of fragrances and/or secondary of the chemical families/functions of those fragrances, modification of the polarity will have the effect of pushing the fragrance in one preferred phase of the biphasic composition.
To determine the distribution of first fragrance and second fragrance in the biphasic composition three formulations (regular EDT, biphasic composition with low amount of water in the water-alcohol phase, biphasic composition with high amount of water in the water-alcohol phase) were tested and compared using GC/MS analysis and Expert evaluator.

[2] = colorant; cited from earlier work
[3] = Bi phase formula high amount of water in the bottom phase (total water ~27.24%)
[4] = Bi phase formula low amount of water in the bottom phase (total water ~7.4%)

Row | SMILES | Result in % based on GC/MS analysis, Lower phase aromatics % [1, 3] [%] | Result in % based on GC/MS analysis, Upper phase aromatics % [1, 3] [%] | Result in % based on GC/MS analysis, Lower phase aromatics % [1, 4] [%] | Result in % based on GC/MS analysis, Upper phase aromatics % [1, 4] [%] | Result in % based on GC/MS analysis, Regular EDT aromatics % [1] [%] | migration between phases when the amount of water is increased [1] | solubility (oil-soluble / water-soluble) [2]
1 | C=CC(C)(O)CCC=C(C)CC (mixture of isomers) [ethyl linalol] | 28.40 | 0.83 | 6.86 | 1.11 | 4.39 | stays in the hydro-alcoholic phase | –
2 | CC(=O)OC1CCCCC1C(C)(C)C (single isomer, unassigned) [agrumex major isomer, agrumex] | 0.16 | 0.47 | 0.40 | 0.45 | 0.41 | – | –
3 | O=C1c2ccccc2C(=O)C1c1ccc2ccccc2n1 [D&C Yellow No. 11] | – | – | – | – | – | – | oil-soluble
4 | O=C(O)c1nn(-c2ccc(S(=O)(=O)O)cc2)c(O)c1N=Nc1ccc(S(=O)(=O)O)cc1 [FD&C Yellow No. 5] | – | – | – | – | – | – | water-soluble
5 | CCCCCCCCCCCCCC(=O)OC(C)C [Isopropyl Myristate IPM, Isopropyl Myristate] | 0.00 | 13.93 | 4.96 | 23.40 | 13.34 | migrate following the same rules in the oil phase | –
6 | CC(C)CC1CC(C)(O)CCO1 (stereo not shown) [florosa] | 5.86 | 3.93 | 5.12 | 1.86 | 3.82 | – | –
7 | CC1COCc2cc3c(cc21)C(C)(C)C(C)C3(C)C (stereo not drawn) [galaxolide (main peak), galaxolide] | 1.64 | 22.92 | 15.47 | 26.53 | 20.25 | migrating in the oily phase | –
8 | CCCCCC1C(=O)CCC1CC(=O)OC (stereo not drawn) [hedione trans, hedione] | 26.10 | 11.94 | 18.40 | 6.64 | 13.28 | – | –
9 | CC(C=O)Cc1ccc2c(c1)OCO2 (stereo not shown) [helional] | 4.10 | 0.91 | 2.03 | 0.40 | 1.32 | – | –
10 | CCCCCCC(C=O)=Cc1ccccc1 [hexylcinnamic aid, hexylcinnamic aldehyde] | 0.46 | 1.67 | 1.65 | 1.43 | 1.54 | migrating in the oily phase | –
11 | CC(CC=O)CCCC(C)(C)O (stereo not shown) [hydroxycitronelial] | 4.13 | 0.12 | 0.88 | 0.06 | 0.53 | – | –
12 | CC(C=O)Cc1ccc(C(C)(C)C)cc1 (stereo not shown) [lilial] | 2.43 | 4.18 | 4.90 | 2.70 | 3.92 | – | –
13 | C=CC(C)(CCC=C(C)C)OC(C)=O (stereo not shown) [linalyl acetate] | 1.63 | 3.89 | 3.52 | 3.38 | 3.37 | – | –
